These results are taken from patent US8906395B2, “Pharmaceutical composition in which solubility of partially soluble tricyclic derivative is improved” (Jeil Pharmaceutical Co., Ltd., priority 2010, dated 2014).

The subject of one series is tumor. The note with it: in vivo; cited from earlier work.
Series [1] in a line: Solubility of tricyclic derivative compound in solubilizing agents (HPLC). The format is physicochemical. On the procedure:
The solubility of the tricyclic derivative compound in a solubilizing agent was measured in the following manner.

The test system of a further series is cancer cell lines. The note with it: cited from earlier work.
The conditions of series [2]: compared to a colchicine or taxol injection; cited from earlier work.
The test system of another series is HUVEC cells. The following applies: cited from earlier work.
Series [3] can be described thus: Solubility of tricyclic derivative compound in water (HPLC). The class given is physicochemical. The note with it: distilled water, room temperature, stirred 24 hours, 0.2 μm filtrate. On the procedure: The solubility of the tricyclic derivative compound of Formula 1 in water was measured in the following manner.
1.42 mg of the tricyclic derivative compound was dissolved in acetonitrile to prepare […] of a solution which was then serially diluted to prepare 50 μl/ml, 20 μl/ml and 10 μl/ml of standard solutions. 3-ethoxythiocolchicine as an internal standard was added to each of the standard solutions which were then analyzed by HPLC to measure the area ratio of the tricyclic derivative compound.
Then, 1 g of the tricyclic derivative compound was added to 10 ml of distilled water to make a suspension which was then stirred at room temperature for 24 hours to sufficiently dissolve the compound. Then, the suspension was filtered through a 0.2 μm membrane to remove insoluble materials, and the remaining filtrate was analyzed by HPLC using 3-ethoxythiocolchicine as an internal standard to measure the area ratio of the tricyclic derivative compound, which was then compared with the area ratio of the standard curve shown in FIG. 1, thereby determining the concentration of the tricyclic derivative compound dissolved in water.

≈ marks a conversion by molar mass, not a printed value. Where only a bound is given, the exact number is not on record here.

A word on the solubility: it is the concentration that dissolves in the medium under given conditions. Turning to `CCOc1cc2c(c(OC)c1OC)-c1ccc(SC)c(=O)cc1[C@@H](NC(=O)c1cccc(CO[N+](=O)[O-])c1F)CC2` [tricyclic derivative compound], in the series on tumor, the “tumor size and weight” value was “significantly reduces the tumor size and weight”. The Solubility entry in series [1] (PEG 400:water 0:100), in series [1] (solvent: 5% aqueous solution of hydrochloric acid), in series [1] (solvent: 5% aqueous solution of sodium hydrogen carbonate), in series [1] (solvent: 5% aqueous solution of sodium oxide) and in series [1] (solvent: Water) was “Not detected” throughout. The solubility at 24 h in series [1] (PEG 400:water 10:90, aqueous with cosolvent or surfactant or cyclodextrin) turned out to be 0.21 µg/mL (≈ 0.359 µM); in series [1] (PEG 400:water 20:80, aqueous with cosolvent or surfactant or cyclodextrin), 2.94 µg/mL (≈ 5.03 µM); in series [1] (PEG 400:water 30:70, aqueous with cosolvent or surfactant or cyclodextrin), 1.24 µg/mL (≈ 2.12 µM); in series [1] (PEG 400:water 40:60, aqueous with cosolvent or surfactant or cyclodextrin), 53.9 µg/mL (≈ 92.3 µM); in series [1] (PEG 400:water 50:50, aqueous with cosolvent or surfactant or cyclodextrin), 189 µg/mL (≈ 323 µM); in series [1] (PEG 400:water 100:0, organic solvent or mixture), 52000 µg/mL (≈ 89000 µM). Moreover, the solubility at 24 h is over 103000 µg/mL in series [1] (benzyl alcohol, organic solvent or mixture, solvent: Benzylalcohol); 35 µg/mL (≈ 59.9 µM) in series [1] (organic solvent or mixture, solvent: Ethanol); 4.8 µg/mL (≈ 8.21 µM) in series [1] (organic solvent or mixture, solvent: Glycerin); over 218000 µg/mL in series [1] (organic solvent or mixture, solvent: N,N-dimethylacetamide); 52000 µg/mL (≈ 89000 µM) in series [1] (organic solvent or mixture, solvent: Polyethylene glycol 400 (PEG 400)); 2300 µg/mL (≈ 3930 µM) in series [1] (organic solvent or mixture, solvent: Propylene glycol). The “cytotoxicity against cancer cell lines” value with cancer cell lines was “very strong cytotoxicity”. The “toxicity in animal toxicity test” value in series [2] is reported as “significantly reduced toxicity”. The angiogenesis inhibitory activity result in the series on HUVEC cells was “strong angiogenesis inhibitory activity”. This molecule also came in with a solubility in water in series [3] of 0.00 μl/ml.
